Source: BigSolDB 2.1

COC(=O)c1ccc2cc(C(=O)OC)ccc2c1
Details | solubility (mole fraction)
in DMAc, 299.11 K | 0.00345
in DMAc, 315.05 K | 0.0072
in DMAc, 320.35 K | 0.00895
in DMAc, 326.25 K | 0.0112
in DMAc, 330.38 K | 0.0129
in DMAc, 337.27 K | 0.0167
in DMAc, 342.39 K | 0.0202
in DMAc, 352.75 K | 0.0301
in DMAc, 358.55 K | 0.0377
in DMAc, 364.4 K | 0.0452
in DMAc, 370.8 K | 0.0573
in DMAc, 376.26 K | 0.0674
in DMAc, 381.71 K | 0.0814
in DMAc, 383.38 K | 0.0855
in DMAc, 387.01 K | 0.0963
in DMAc, 391.14 K | 0.107
in DMAc, 392.17 K | 0.112
in DMF, 303.31 K | 0.00253
in DMF, 309.36 K | 0.00341
in DMF, 317.9 K | 0.00521
in DMF, 329.65 K | 0.00884
in DMF, 335.43 K | 0.0116
in DMF, 342.21 K | 0.015
in DMF, 349.85 K | 0.0193
in DMF, 357.96 K | 0.0272
in DMF, 362.73 K | 0.0323
in DMF, 366.6 K | 0.0396
in DMF, 368.38 K | 0.0408
in DMF, 373.02 K | 0.0495
in DMF, 377.86 K | 0.0574
in DMF, 379.66 K | 0.0611
in DMF, 382.14 K | 0.0661
in DMF, 383.38 K | 0.0699
in DMSO, 298.28 K | 0.000669
in DMSO, 308.07 K | 0.00113
in DMSO, 316.57 K | 0.00179
in DMSO, 324.97 K | 0.00272
in DMSO, 340.85 K | 0.00537
in DMSO, 347.18 K | 0.00726
in DMSO, 353.35 K | 0.00952
in DMSO, 356.66 K | 0.0109
in DMSO, 365.19 K | 0.0157
in DMSO, 369.88 K | 0.016
in DMSO, 374.65 K | 0.0226
in DMSO, 386.85 K | 0.0352
in DMSO, 394.81 K | 0.0471
in DMSO, 405.07 K | 0.069
in NMP, 293.2 K | 0.0056
in NMP, 296.73 K | 0.00577
in NMP, 300.48 K | 0.00606
in NMP, 303.5 K | 0.00632
in NMP, 308.77 K | 0.00669
in NMP, 311.81 K | 0.00687
in NMP, 317.1 K | 0.0074
in NMP, 322.89 K | 0.00803
in NMP, 328.16 K | 0.00864
in NMP, 336.69 K | 0.00914
in NMP, 345.34 K | 0.0103
in NMP, 354.23 K | 0.0115
in NMP, 360.09 K | 0.0125
in NMP, 368.69 K | 0.0132
in NMP, 375.38 K | 0.016
in NMP, 383.36 K | 0.0167
in NMP, 393.2 K | 0.0195
in NMP, 404.46 K | 0.0251
in NMP, 409.92 K | 0.0271
in NMP, 414.36 K | 0.0299
in NMP, 418.83 K | 0.0328
in NMP, 423.7 K | 0.0379
in NMP, 425.77 K | 0.0399
in acetic acid, 292.49 K | 0.00051
in acetic acid, 295.65 K | 0.000621
in acetic acid, 300.35 K | 0.000804
in acetic acid, 306.86 K | 0.00116
in acetic acid, 311.63 K | 0.00147
in acetic acid, 316.5 K | 0.0019
in acetic acid, 320.65 K | 0.00232
in acetic acid, 323 K | 0.00254
in acetic acid, 329.15 K | 0.00381
in acetic acid, 333.47 K | 0.00428
in acetic acid, 337.2 K | 0.0051
in acetic acid, 343.3 K | 0.00657
in acetic acid, 350.13 K | 0.00833
in acetic acid, 357.38 K | 0.0113
in acetic acid, 362.8 K | 0.0143
in acetic acid, 366.66 K | 0.0169
in acetic acid, 372.51 K | 0.0217
in acetic acid, 375.64 K | 0.0248
in acetic acid, 381.78 K | 0.0304
in acetic acid, 385.96 K | 0.0352
in acetic acid, 392.47 K | 0.046
in acetic acid, 394.71 K | 0.0493
in acetic acid, 398.5 K | 0.0564
in acetic acid, 400.54 K | 0.0607
